Source: patent publication EP2511272B1, “Synthetic analogues of abscisic acid with anti-inflammatory and insulin release stimulation effects on human cells” (Universita' degli Studi di Genova, priority 2011, dated 2012)

Key:
granulocytes = test: Inhibition of ABA-induced chemotaxis (granulocyte migration, ChemoTx); type: cell-based, human
human granulocytes [1] = test: Stability without extraction in HBSS in the presence of human granulocytes (HPLC-MS); type: in vitro ADME; conditions: for Stability (without extraction): Granulocytes in HBSS, 10 µM, 37 °C
Experimental: Additionally, stability tests were carried out in water, in HBSS and in HBSS in the presence of human granulocytes at time 0, and after 1 and 2 hrs at 37 °C, and carrying out HPLC-MSS analysis without extracting the analyte of interest.
In order to test the compound prepared according to example 1 for stability in HBSS in the presence, or absence, of granulocytes, 1 x 10^8 cells were used in 2 ml of HBSS (with calcium and magnesium added) containing 10 µM of compound prepared according to example 1 at 37°C. Samples of 500 µl each were drawn at time 0, and after 1 and 2 hrs and the cells were separated by centrifugation at 200xg for 5 minutes; the supernatant was then recovered and directly analysed in HPLC-MS.
(§1) The HPLC-MS system used consists of an Agilent 1100 capillary chromatograph equipped with a diode array detector (DAD) and coupled with an Agilent 1100 series LC/MSD Trap mass spectometer with orthogonal electrospray source and a ionic-trap analyser.
(§2) The detection wavelength was 254 nm and the MS spectrum was recorded in negative ions mode in an m/z range of 50-300.
(§3) The amount of compound of example 1 in the extracts and supernatants was computed as the area of the peak under the extracted ion current m/z 279.3, normalized for the ionization efficiency of internal standard (hexadeuterated ABA) used for HPLC-MS analysis. Furthermore, the concentration was computed using the recovery rates obtained from the evaluation of counts per minute (cpm) of extracted [^3H]ABA.

[2] = test system: 1321 N1 (human astrocytoma); test: Cytotoxicity, CellTiter 96 AQueous One Solution assay; type: cell-based; conditions: 24 hrs
human granulocytes [3] = test: Inhibition of ABA-induced PGE2 production in granulocytes (EIA); type: cell-based; conditions: 6 h
Experimental: Granulocytes, in a number of 1x10^7 per point in RPMI supplemented with 10 % of foetal calf serum (FCS), penicillin (50 units/ml) and streptomycin (50 µg/ml) (complete RPMI), were incubated for 6 h with […] either alone or in the presence compound prepared according to example 1 at a concentration of 100 nM or of 1 µM. At the end of the incubation, the substrate was centrifuged at 17,000xg for 5 minutes and the concentration of PGE2 was quantitated by using the kit: PGE2 monoclonal EIA kit (Cayman Chemical Co.), following the instructions suppled by the manufacturer.
The cells were lysed in 200 µl of deionized water in order to quantitate total proteins by the Bradford method (Bradford, M. M., 1976), after thre preliminary generation of a reference standard curve, obtained with different concentrations of bovine serum albumin. The spectrophotometric measurements were carried out at wavelength of 595 nm.
The experiment was carried out three times in triplicate TABLE 6). TABLE 6. Inhibition of PGE2 production, in human granulocytes stimulated with ABA, by compound prepared according to example 1

[4] = Stability after extraction from H2O and HBSS (HPLC-MS); type: physicochemical; conditions: for Stability after extraction (amount found): 10 µM; for degradation: 0 vs 24 hrs
Experimental: Compound prepared according to example 1 was tested for stability at 10 µM concentration in deionized water, phosphate buffer (HBSS with calcium and magnesium) and human plasma for 0 and after 24 hrs at 37 °C, by carrying out the extraction as described in Materials and Methods, and subsequent HPLC-MS analysis for the analyte of interest.
For stability tests, to 2 ml of deionized water, HBSS or human plasma, the compound of example 1 (10 µM) and 5,000 cpm of [^3H]ABA were added, for the purpose of evaluating the recovery after the extraction procedure. The so prepared samples were exctracted at time 0 and after 24 hrs.
For the extraction, 8 ml was added of distilled methanol (methanol/water : 80/20 vol/vol) and the mixture was kept at -20 °C overnight.
The following day the samples were centrifuged at 800xg for 10 minutes and the supernatant was concentrated to dryness by Rotavapor. The reconstituted aqueous solution was acidified at pH 2.6 with 10 % trifluoroacetric acid (TFA) and was extracted three times with diethyl ether (diethyl ether/water: 1:1 vol/vol).
The ethereal phase was finally removed by Rotavapor and the extraxt was resuspended in 1 ml of HBSS; 8 µl of such solution was analysed by HPLC-MS, and 100 µl was used for radioactivity counting by a Packard β-counter in order to compute extraction recovery.
as §1, §2, §3

human granulocytes [5] = test: Cytotoxicity, CellTiter 96 AQueous One Solution assay; type: cell-based; conditions: 24 hrs

## CC(=C/C(=O)O)/C=C/C1(O)C(C)(C)CC(=O)C2OC21C (stereo not drawn) [Example 1, 2'α,3'α-dihydro-2'α,3'α-epoxyabscisic acid]
granulocytes; ABA 1 µM + compound 10 nM
  CI±SD (chemotactic index): 1.26±0.07
granulocytes; Homo sapiens, migration towards ABA 1 µM, compound 10 nM
  inhibition at 0.01 µM: 57%
Human granulocytes [1]; 0 hr
  Stability (without extraction): 94%
Human granulocytes [1]; 1 h
  Stability (without extraction): 82%
Human granulocytes [1]; 2 hrs
  Stability (without extraction): 73%
Human granulocytes [1]; phosphate buffer with human granulocytes, non-extracted samples
  degradation rate: about 10 %/ hour
[2]; 1 nM
  number of cells: 16199
  vitality %: 89%
[2]; 10 nM
  number of cells: 18785
  vitality %: 102%
[2]; 1 µM
  number of cells: 19446
  vitality %: 106%
[2]; 100 µM
  number of cells: 22252
  vitality %: 120%
Human granulocytes [3]; ABA 100 nM + compound 100 nM
  inhibition at 0.1 µM: 85%
Human granulocytes [3]; ABA 100 nM + compound 1 µM
  inhibition at 1 µM: 100%
[4]; H2O, 0 hr, equals extraction yield, listed as compound of example 1
  Stability after extraction (amount found): 100%
[4]; H2O, 0 hr, equals extraction yield, listed as compound prepared according to example 1
  Stability after extraction (amount found): 100%
[4]; H2O, 24 hrs at 37 °C
  Stability after extraction (amount found): 86%
[4]; HBSS, 0 hr, equals extraction yield, listed as compound of example 1
  Stability after extraction (amount found): 76%
[4]; HBSS, 0 hr, equals extraction yield, listed as compound prepared according to example 1
  Stability after extraction (amount found): 76%
[4]; HBSS, 24 hrs at 37 °C
  Stability after extraction (amount found): 73%
[4]; in phosphate buffer
  degradation: 3%
[4]; in water
  degradation: 14%
Human granulocytes [5]; 1 nM
  number of cells: 151138
  vitality %: 89%
Human granulocytes [5]; 10 nM
  number of cells: 191138
  vitality %: 100%
Human granulocytes [5]; 1 µM
  number of cells: 132555
  vitality %: 83%
Human granulocytes [5]; 100 µM
  number of cells: 175388
  vitality %: 96%
